Assay results reported in patent US20240025907A1, “QUINAZOLINE PAN-KRas INHIBITORS” (Mirati Therapeutics, Inc., priority 2022, published 2024).

Assays:
[1] = test system: KRas-mediated Phosphorylation of ERK in H727 cells; assay: Cisbio HTRF pERK assay, H727 cells; assay type: cell-based; conditions: Homo sapiens, NCI-H727, 3 h, 3 hrs compound, read-out: Inhibition (HTRF IC50 nM) of KRas-mediated Phosphorylation of ERK, H727
KRas^G12V = biological target: T1, KRas^G12V (Homo sapiens, UniProt P01116, G12V); assay: KRas TR-FRET tracer displacement binding assay, G12V; conditions: 60-minute incubation
T1 construct: Biotinylated KRas (corresponding to amino acids 1-169, produced at Accelegan Inc.); biotin (biotinylated); purchased Accelegan Inc
Procedure, shortened: (§1)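 TR-FRET displacement: biotinylated KRas (aa 1-169) incubated with Cy5-labelled tracer, terbium streptavidin and compound (1% DMSO final) in 50 mM HEPES pH 7.5, 5 mM MgCl2, 0.005% Tween-20, 1 mM DTT. Read after 60-minute room-temperature incubation.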

KRas^G12R = biological target: T2, KRas^G12R (Homo sapiens, UniProt P01116, G12R); assay: KRas TR-FRET tracer displacement binding assay, G12R; conditions: 60-minute incubation
T2 construct: Biotinylated KRas (corresponding to amino acids 1-169, produced at Accelegan Inc.); biotin (biotinylated); purchased Accelegan Inc
Description: This Example illustrates that exemplary compounds of the present invention bind to KRas and are capable of displacing a labeled tracer ligand occupying the KRas binding site. KRas^WT, KRas^G12A, KRas^G12C, KRas^G12D, KRas^G12R, KRas^G12S, KRas^G12V, KRas^G13D, or KRas^Q61H was used in the assay.
The ability of a compound to bind to KRas was measured using a TR-FRET displacement assay. Biotinylated KRas (corresponding to amino acids 1-169, produced at Accelegan Inc.) was incubated with custom made Cy5 labelled tracer, terbium streptavidin (Cisbio Inc.) and compound (1% DMSO final) in buffer (50 mM HEPES, pH 7.5, 5 mM MgCl2, 0.005% Tween-20 and 1 mM DTT). After a 60-minute incubation at room temperature, the reaction was measured using a BMG LABTECH CLARIO star Plus via TR-FRET. […] The POC values were fit to a 4-parameter IC50 equation and the IC50 value reported in Table 1 (selected Examples 172-222).

[2] = test system: KRas-mediated Phosphorylation of ERK in H460 cells; assay: Cisbio HTRF pERK assay, H460 cells; assay type: cell-based; conditions: Homo sapiens, NCI-H460, 3 h, H460 cells, 3 hrs compound; read-out: Inhibition (HTRF IC50 nM) of KRas-mediated Phosphorylation of ERK, H460
KRas^G12D = biological target: T3, KRas^G12D (Homo sapiens, UniProt P01116, G12D); assay: KRas TR-FRET tracer displacement binding assay, G12D; conditions: 60-minute incubation
T3 construct: Biotinylated KRas (corresponding to amino acids 1-169, produced at Accelegan Inc.); biotin (biotinylated); purchased Accelegan Inc
Procedure, shortened: as §1

[3] = test system: KRas-mediated Phosphorylation of ERK in HCT116 cells; assay: Cisbio HTRF pERK assay, HCT116 cells; assay type: cell-based; conditions: Homo sapiens, HCT-116, 3 h, HCT116 cells, 3 hrs compound; read-out: Inhibition (HTRF IC50 nM) of KRas-mediated Phosphorylation of ERK, HCT116
[4] = test system: KRas-mediated Phosphorylation of ERK in A549 cells; assay: Cisbio HTRF pERK assay, A549 cells; assay type: cell-based; conditions: Homo sapiens, A549, 3 h, A549 cells, 3 hrs compound; read-out: Inhibition (HTRF IC50 nM) of KRas-mediated Phosphorylation of ERK, A549
[5] = test system: KRas-mediated Phosphorylation of ERK in H358 cells; assay: Cisbio HTRF pERK assay, H358 cells; assay type: cell-based; conditions: Homo sapiens, NCI-H358, 3 h, H358 cells, 3 hrs compound; read-out: Inhibition (HTRF IC50 nM) of KRas-mediated Phosphorylation of ERK, H358
[6] = test system: KRas-mediated Phosphorylation of ERK in AsPC-1 cells; assay: Cisbio HTRF pERK assay, AsPC-1 cells; assay type: cell-based; conditions: Homo sapiens, ASPC1, 3 h, 3 hrs compound, read-out: Inhibition (HTRF IC50 nM) of KRas-mediated Phosphorylation of ERK, AsPC-1
[7] = test system: KRas-mediated Phosphorylation of ERK in H2009 cells; assay: Cisbio HTRF pERK assay, H2009 cells; assay type: cell-based; conditions: Homo sapiens, NCI-H2009, H2009 cells; read-out: Inhibition (HTRF IC50 nM) of KRas-mediated Phosphorylation of ERK, H2009
KRas^G12C = biological target: T4, KRas^G12C (Homo sapiens, UniProt P01116, G12C); assay: KRas TR-FRET tracer displacement binding assay, G12C; conditions: 60-minute incubation
T4 construct: Biotinylated KRas (corresponding to amino acids 1-169, produced at Accelegan Inc.); biotin (biotinylated); purchased Accelegan Inc
Procedure, shortened: as §1

KRas^WT = biological target: T5, KRas^WT (Homo sapiens, UniProt P01116); assay: KRas TR-FRET tracer displacement binding assay, WT; conditions: 60-minute incubation
T5 construct: Biotinylated KRas (corresponding to amino acids 1-169, produced at Accelegan Inc.); biotin (biotinylated); purchased Accelegan Inc
Procedure, shortened: as §1

KRas^G12S = biological target: T6, KRas^G12S (Homo sapiens, UniProt P01116, G12S); assay: KRas TR-FRET tracer displacement binding assay, G12S; conditions: 60-minute incubation
T6 construct: Biotinylated KRas (corresponding to amino acids 1-169, produced at Accelegan Inc.); biotin (biotinylated); purchased Accelegan Inc
Procedure, shortened: as §1

[8] = test system: KRas-mediated Phosphorylation of ERK in PSN1 cells; assay: Cisbio HTRF pERK assay, PSN1 cells; assay type: cell-based; conditions: Homo sapiens, PSN1, 3 h, 3 hour compound, read-out: Inhibition (HTRF IC50 nM) of KRas-mediated Phosphorylation of ERK, PSN1
Description: (§2) Inhibition of KRas Phosphorylation of ERK (HTRF) by Exemplary Compounds of Formula (I) • Cisbio HTRF Advanced pERK Assay Catalog #64AERPEH • Cell: MKN1, PSN1 • Procedure: • Day 1: Seed 6,000 cells/well −25 μl/well in 384-well white solid bottom plate; RPM1_10% FBS.

[9] = test system: KRas-mediated Phosphorylation of ERK in MKN1 cells; assay: Cisbio HTRF pERK assay, MKN1 cells; assay type: cell-based; conditions: Homo sapiens, MKN-1, 3 hour compound, read-out: Inhibition (HTRF IC50 nM) of KRas-mediated Phosphorylation of ERK, MKN1
Description: as §2

T3 sequence (P01116 1-169 isoform P01116-2 G12D): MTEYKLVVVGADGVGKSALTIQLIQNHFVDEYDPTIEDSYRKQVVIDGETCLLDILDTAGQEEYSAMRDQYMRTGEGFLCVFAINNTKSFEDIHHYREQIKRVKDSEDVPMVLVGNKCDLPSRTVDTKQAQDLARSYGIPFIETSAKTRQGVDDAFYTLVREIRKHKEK
T1 sequence (P01116 1-169 isoform P01116-2 G12V): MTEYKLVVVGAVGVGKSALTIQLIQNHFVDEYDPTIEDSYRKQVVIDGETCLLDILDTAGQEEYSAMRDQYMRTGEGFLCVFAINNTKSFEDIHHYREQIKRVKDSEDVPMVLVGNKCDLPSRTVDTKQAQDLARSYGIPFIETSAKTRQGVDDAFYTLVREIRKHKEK
T6 sequence (P01116 1-169 isoform P01116-2 G12S): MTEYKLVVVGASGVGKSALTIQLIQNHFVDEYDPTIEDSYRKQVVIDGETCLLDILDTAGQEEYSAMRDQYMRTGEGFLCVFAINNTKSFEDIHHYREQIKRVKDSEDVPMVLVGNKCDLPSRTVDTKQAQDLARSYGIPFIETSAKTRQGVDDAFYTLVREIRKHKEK
T5 sequence (P01116 1-169 isoform P01116-2): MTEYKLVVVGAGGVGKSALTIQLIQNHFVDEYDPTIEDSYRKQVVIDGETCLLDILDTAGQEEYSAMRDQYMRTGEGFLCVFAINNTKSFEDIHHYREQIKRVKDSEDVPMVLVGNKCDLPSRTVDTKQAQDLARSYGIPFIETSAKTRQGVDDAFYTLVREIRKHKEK
T4 sequence (P01116 1-169 isoform P01116-2 G12C): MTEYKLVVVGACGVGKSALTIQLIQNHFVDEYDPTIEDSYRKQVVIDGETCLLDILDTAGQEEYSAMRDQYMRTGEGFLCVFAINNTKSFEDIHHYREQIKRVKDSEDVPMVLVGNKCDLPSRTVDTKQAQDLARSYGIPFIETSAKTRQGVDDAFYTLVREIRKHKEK
T2 sequence (P01116 1-169 isoform P01116-2 G12R): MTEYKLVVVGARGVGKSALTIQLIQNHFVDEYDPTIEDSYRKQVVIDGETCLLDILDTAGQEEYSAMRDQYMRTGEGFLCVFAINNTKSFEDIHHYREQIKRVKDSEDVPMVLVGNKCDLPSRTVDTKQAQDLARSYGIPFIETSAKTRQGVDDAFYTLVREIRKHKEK

IC50 [1] [nM]	IC50 (KRas^G12V) [nM]	IC50 (KRas^G12R) [nM]	IC50 [2] [nM]	IC50 (KRas^G12D) [nM]	IC50 [3] [nM]	IC50 [4] [nM]	IC50 [5] [nM]	IC50 [6] [nM]	IC50 [7] [nM]	IC50 (KRas^G12C) [nM]	IC50 (KRas^WT) [nM]	IC50 (KRas^G12S) [nM]	IC50 [8] [nM]	IC50 [9] [nM]	Compound
694	9	9	968	285	2260	734	324	4020							CCc1c(F)ccc2cc(O)cc(-c3c(F)cc4c(NCc5c[nH]c6ncccc56)nc(OC[C@@]56CCCN5C[C@H](F)C6)nc4c3F)c12 [Example 174, 4-(4-(((1H-pyrrolo[2,3-b]pyridin-3-yl)methyl)amino)-6,8-difluoro-2-(((2R,7aS)-2-fluorotetrahydro-1H-pyrrolizin-7a(5H)-yl)methoxy)quinazolin-7-yl)-5-ethyl-6-fluoronaphthalen-2-ol]
422	12	16	445	313	1640	490	185	1280							CCc1c(F)ccc2cc(O)cc(-c3c(F)cc4c(N5CC(c6ccncc6)C5)nc(OC[C@@]56CCCN5C[C@H](F)C6)nc4c3F)c12 [Example 175, 4-(6,8-difluoro-2-(((2R,7aS)-2-fluorotetrahydro-1H-pyrrolizin-7a(5H)-yl)methoxy)-4-(3-(pyridin-4-yl)azetidin-1-yl)quinazolin-7-yl)-5-ethyl-6-fluoronaphthalen-2-ol]
35	< 2		223	< 2	392	393	21	25	34	4	< 2	< 2	3820	13	CN(C)C(=O)c1cc2n(n1)CCCN(c1nc(OC[C@@]34CCCN3C[C@H](F)C4)nc3c(F)c(-c4ccc(F)c5sc(N)c(C#N)c45)c(F)cc13)C2 [Example 215, 5-(7-(2-amino-3-cyano-7-fluorobenzo[b]thiophen-4-yl)-6,8-difluoro-2-(((2R,7aS)-2-fluorotetrahydro-1H-pyrrolizin-7a(5H)-yl)methoxy)quinazolin-4-yl)-N,N-dimethyl-5,6,7,8-tetrahydro-4H-pyrazolo[1,5-a][1,4]diazepine-2-carboxamide]
131	4		118	4	346	325	26	175	18	6	6	5	2440	12	C[C@@]1(O)COCCN(c2nc(OC[C@@]34CCCN3C[C@H](F)C4)nc3c(F)c(-c4ccc(F)c5sc(N)c(C#N)c45)c(F)cc23)C1 [Example 216, 2-amino-4-(6,8-difluoro-2-(((2R,7aS)-2-fluorotetrahydro-1H-pyrrolizin-7a(5H)-yl)methoxy)-4-((S)-6-hydroxy-6-methyl-1,4-oxazepan-4-yl)quinazolin-7-yl)-7-fluorobenzo[b]thiophene-3-carbonitrile]
1440			911		1110	1640	207	2560	273				> 10000	84	N#Cc1c(N)sc2c(F)ccc(-c3c(Cl)cc4c(NCC5CS(=O)(=O)C5)nc(OC[C@@]56CCCN5C[C@H](F)C6)nc4c3F)c12 [Example 222, 2-amino-4-(6-chloro-4-(((1,1-dioxidothietan-3-yl)methyl)amino)-8-fluoro-2-(((2R,7aS)-2-fluorotetrahydro-1H-pyrrolizin-7a(5H)-yl)methoxy)quinazolin-7-yl)-7-fluorobenzo[b]thiophene-3-carbonitrile]
